According to PubChem BioAssay (NCI):
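Dose response: 5 concentrations. Exposure: 48 h. Format: 96-well plates. Endpoint: linear interpolation; highest concentration if not reached. GI50 = concentration required for 50% inhibition of growth. TGI is the concentration that stops growth completely.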 Where a SMILES comes first, the peptide text is derived from it.

Experiments:
Experiment in all cases: NCI anticancer screen, dose series, 48 h
NCI/ADR-RES ovarian = test system: NCI/ADR-RES ovarian
MCF7 breast = test system: MCF7 breast
NCI-H23 lung = test system: NCI-H23 lung
CAKI-1 renal = test system: CAKI-1 renal
SK-MEL-28 melanoma = test system: SK-MEL-28 melanoma
A498 renal = test system: A498 renal
EKVX NSCLC = test system: EKVX NSCLC
OVCAR-4 ovarian = test system: OVCAR-4 ovarian
UACC-257 melanoma = test system: UACC-257 melanoma
SK-MEL-5 melanoma = test system: SK-MEL-5 melanoma

Compound	TGI (NCI/ADR-RES ovarian) [µM]	TGI (MCF7 breast) [µM]	TGI (NCI-H23 lung) [µM]	TGI (CAKI-1 renal) [µM]	TGI (SK-MEL-28 melanoma) [µM]	TGI (A498 renal) [µM]	TGI (EKVX NSCLC) [µM]	TGI (OVCAR-4 ovarian) [µM]	TGI (UACC-257 melanoma) [µM]	TGI (SK-MEL-5 melanoma) [µM]	GI50 (NCI/ADR-RES ovarian) [µM]	GI50 (MCF7 breast) [µM]	GI50 (NCI-H23 lung) [µM]	GI50 (CAKI-1 renal) [µM]	GI50 (SK-MEL-28 melanoma) [µM]	GI50 (A498 renal) [µM]	GI50 (EKVX NSCLC) [µM]	GI50 (OVCAR-4 ovarian) [µM]	GI50 (UACC-257 melanoma) [µM]	GI50 (SK-MEL-5 melanoma) [µM]
CCC(C)C(NC(=O)C1CCCN1C(=O)C(CC(C)C)NC(=O)C(CC(C)C)NC(=O)C(N)CC(C)C)C(=O)NC(C(=O)NCC(=O)NC(CC(N)=O)C(=O)NC(CC(C)C)C(=O)NC(CC(C)C)C(=O)NC(CC(C)C)C(N)=O)C(C)C (centres undefined) (H-LLLPIVGNLLL-NH2; configuration not given here)	> 50	> 50	> 50	> 50	> 50	> 50	> 50	> 50	> 50	> 50	–	–	–	–	–	–	–	–	–	–
COC(=O)C1=C(O)CCCC(CCC(C)=O)=C1	> 100	–	> 100	> 100	> 100	> 100	> 100	> 100	> 100	> 100	–	–	–	–	–	–	–	–	–	–
CC(=O)c1ccc2c(c1)N(CCCN1CCN(CCO)CC1)c1ccccc1C2	27.7	–	30.1	26.9	23.8	30.1	33.6	30.2	18.9	25.6	–	–	–	–	–	–	–	–	–	–
C1=CC(=[N+]2N=C(c3ccccc3)CC2c2ccccc2)C=CC1=C1SC(c2ccccc2)(c2ccccc2)c2ccccc21 (centres undefined)	> 100	> 100	> 100	–	> 100	> 100	> 100	–	–	> 100	–	–	–	–	–	–	–	–	–	–
NC(=S)N1N=C(c2ccccc2O)CC1c1ccccc1 (centres undefined)	50.6	20.8	61.3	> 100	58.5	30.1	70.6	67.1	39.1	23.1	–	–	–	–	–	–	–	–	–	–
CCCCCOC(=O)c1cc2cc(CCl)ccc2oc1=O	53.3	> 56.9	17.2	6.3	60.2	5.39	18.4	18.6	5.96	13.4	–	–	–	–	–	–	–	–	–	–
COc1cc2c(cc1C)NC(=O)/C2=C/c1c(Cl)n(-c2ccccc2)c2ccccc12	67.7	> 100	81.8	> 100	> 100	> 100	> 100	–	61.7	22.3	–	–	–	–	–	–	–	–	–	–
CCCN1C(=O)CSC1=Nc1ccc2cc3ccc(N=C4SCC(=O)N4CCC)cc3nc2c1	> 100	> 100	> 100	> 100	> 100	> 100	> 100	> 100	> 100	> 100	63.1	77.6	71.1	> 100	> 100	> 100	> 100	45.8	> 100	49
COC(OC)C1OC(CO)C(n2cc(F)c(=O)[nH]c2=O)C1O (centres undefined)	> 100	> 100	> 100	> 100	> 100	> 100	> 100	> 100	> 100	–	–	–	–	–	–	–	–	–	–	–
Cc1cc(=O)[nH]c(/N=C(\N)Nc2ccc(Cl)cc2)n1	> 100	–	> 100	> 100	> 100	> 100	> 100	–	> 100	> 100	–	–	–	–	–	–	–	–	–	–
CC(C)C1OC(=O)/C=C/C=C/C=C/C=C/C=C/CC(O)C(C)C(O)CC(O)CC(O)CC(O)CC(O)CC(O)CC(O)/C=C/C1C (centres undefined)	> 100	> 100	> 100	–	> 100	> 100	> 100	> 100	> 100	–	–	–	–	–	–	–	–	–	–	–
O=S(=O)(O)c1cc(N=[N+]([O-])c2cc(S(=O)(=O)O)c3ccccc3c2)cc2ccccc12	> 100	> 100	77	44.4	> 100	> 100	> 100	38.2	> 100	32.8	–	–	–	–	–	–	–	–	–	–
O=[N+]([O-])c1ccc2c(c1)nc(Cc1ccc(Cl)cc1)n2C[C@@H]1CCCN2CCCCC12 (some centres undefined)	30.2	22.5	34.3	31.7	30.1	21.7	> 41.2	> 44	31.4	29.5	–	–	–	–	–	–	–	–	–	–
Cc1nc2ncn3c(c-2c1Cc1ccccc1)NC=C(O)N3	> 100	> 100	> 100	> 100	> 100	> 100	> 100	> 100	> 100	> 100	–	–	–	–	–	–	–	–	–	–
CC(=O)Oc1ccc(CO)cc1OC(C)=O	–	–	–	> 100	> 100	> 100	> 100	> 100	> 100	> 100	–	–	–	–	–	–	–	–	–	–
O=c1[nH]c(Nc2ccc(Cl)cc2)nc2nc[nH]c12	> 100	> 100	> 100	> 100	> 100	> 100	> 100	> 100	> 100	> 100	–	–	–	–	–	–	–	–	–	–
CSCCC(NC(=O)OCc1ccccc1)P(=O)(O)c1ccccc1 (centres undefined)	> 100	> 100	> 100	> 100	> 100	–	–	> 100	> 100	> 100	–	–	–	–	–	–	–	–	–	–
